Test results as given in US20250230147A1, “LACTAMS AS CBL-B INHIBITORS” (Genentech, Inc., priority 2021, published 2025).

Tests used:
Cbl-b = Cbl-b (Homo sapiens (Human), UniProt Q13191); test: Cbl-b LCK Ub TR-FRET assay (Cbl-b Lck HTRF); assay type: biochemical
Procedure, shortened: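 Biotin-Cbl-b preincubated with compound (10-point 3-fold series) 60 min, then His-LCK with 1 mM ATP (2× mixture) added for 90 min at room temperature. Ubiquitination detected by TR-FRET using HA-ubiquitin/UBE2D2 adduct, anti-HA-D2 and streptavidin-Eu; IC50 normalised to no-LCK and DMSO controls.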

c-Cbl = c-Cbl (Homo sapiens (Human), UniProt P22681); test: C-Cbl LCK Ub TR-FRET assay (c-cbl Lck HTRF); assay type: biochemical; settings: for (fold-selectivity): C-cbl Lck HTRF IC50 relative to Cbl-b Lck HTRF IC50
Procedure, shortened: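 Detection reagents added, brief spin, 20 min RT. IC50 fit normalized to no-LCK (low) and DMSO (high) controls.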

Sequence of Cbl-b (Q13191 40-426): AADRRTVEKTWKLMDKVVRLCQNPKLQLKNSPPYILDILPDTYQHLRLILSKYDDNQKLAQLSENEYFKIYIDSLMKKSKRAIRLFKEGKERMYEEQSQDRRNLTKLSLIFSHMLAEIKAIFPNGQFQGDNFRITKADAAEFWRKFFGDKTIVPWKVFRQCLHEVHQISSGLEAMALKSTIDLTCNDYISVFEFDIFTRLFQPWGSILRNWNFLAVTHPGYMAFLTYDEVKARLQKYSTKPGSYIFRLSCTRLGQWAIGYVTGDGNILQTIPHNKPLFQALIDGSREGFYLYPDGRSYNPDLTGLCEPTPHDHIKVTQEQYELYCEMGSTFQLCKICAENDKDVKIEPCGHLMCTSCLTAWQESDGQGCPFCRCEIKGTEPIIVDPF
Sequence of c-Cbl (P22681 47-435): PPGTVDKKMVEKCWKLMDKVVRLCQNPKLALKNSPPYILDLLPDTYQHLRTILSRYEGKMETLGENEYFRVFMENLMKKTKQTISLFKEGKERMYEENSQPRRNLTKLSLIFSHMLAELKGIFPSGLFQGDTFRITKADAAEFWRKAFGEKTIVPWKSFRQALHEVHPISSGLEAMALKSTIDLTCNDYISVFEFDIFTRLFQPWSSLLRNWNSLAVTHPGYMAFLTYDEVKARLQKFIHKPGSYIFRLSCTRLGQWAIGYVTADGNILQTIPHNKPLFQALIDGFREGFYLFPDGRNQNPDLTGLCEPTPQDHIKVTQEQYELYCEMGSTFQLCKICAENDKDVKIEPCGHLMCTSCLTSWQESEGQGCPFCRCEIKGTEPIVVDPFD

| Compound | IC50 (Cbl-b) [nM] | IC50 (c-Cbl) [nM] | (fold-selectivity) (c-Cbl) |
| --- | --- | --- | --- |
| CCOc1cc(C2(Cc3nncn3C)CCC2)cc(N2Cc3c(cc(CNC4(C)CCC4)cc3C(F)(F)F)C2=O)n1 [Compound 285, 2-(6-ethoxy-4-(1-((4-methyl-4H-1,2,4-triazol-3-yl)methyl)cyclobutyl)pyridin-2-yl)-6-(((1-methylcyclobutyl)amino)methyl)-4-(trifluoromethyl)isoindolin-1-one] | 8 | 5.3 | (0.71x) |
| C[C@H]1CN(Cc2cc3c(c(C(F)(F)F)c2)CN(c2cccc(C4(Cc5nncn5C)CC(F)(F)C4)c2)C3=O)CCN1 [Compound 425, (S)-2-(3-(3,3-difluoro-1-((4-methyl-4H-1,2,4-triazol-3-yl)methyl)cyclobutyl)phenyl)-6-((3-methylpiperazin-1-yl)methyl)-4-(trifluoromethyl)isoindolin-1-one] | 32 | 22 | (0.68x) |
| CCCC1(O)CN(Cc2cc3c(c(C(F)(F)F)c2)CN(c2cccc(C4([C@@H](F)c5nncn5C)COC4)c2)C3=O)C1 [Compound 171, (R)-2-(3-(3-(fluoro(4-methyl-4H-1,2,4-triazol-3-yl)methyl)oxetan-3-yl)phenyl)-6-((3-hydroxy-3-propylazetidin-1-yl)methyl)-4-(trifluoromethyl)isoindolin-1-one] | 49 | 82 | 1.7x |
| CC(C)[C@H]1CN(S(C)(=O)=O)CCN1Cc1cc2c(c(C(F)(F)F)c1)CN(c1cccc(C3([C@@H](F)c4nncn4C)COC3)c1)C2=O [Compound 195, 2-(3-(3-((R)-fluoro(4-methyl-4H-1,2,4-triazol-3-yl)methyl)oxetan-3-yl)phenyl)-6-(((S)-2-isopropyl-4-(methylsulfonyl)piperazin-1-yl)methyl)-4-(trifluoromethyl)isoindolin-1-one] | 53 | 110 | 2.0x |
| Cn1cnnc1[C@H](F)C1(c2cccc(N3Cc4c(cc(CNC5(C)CCC5)cc4C(F)(F)F)C3=O)c2)COC1 [Compound 230, (R)-2-(3-(3-(fluoro(4-methyl-4H-1,2,4-triazol-3-yl)methyl)oxetan-3-yl)phenyl)-6-(((1-methylcyclobutyl)amino)methyl)-4-(trifluoromethyl)isoindolin-1-one] | 13 | 11 | (0.84x) |
| Cn1cnnc1[C@@H](F)C1(c2cccc(N3Cc4c(cc(CN5CC(S(C)(=O)=O)C5)cc4C(F)(F)F)C3=O)c2)COC1 [Compound 164, (S)-2-(3-(3-(fluoro(4-methyl-4H-1,2,4-triazol-3-yl)methyl)oxetan-3-yl)phenyl)-6-((3-(methylsulfonyl)azetidin-1-yl)methyl)-4-(trifluoromethyl)isoindolin-1-one] | 350 | 640 | 1.8x |
| Cn1cnnc1CC1(c2cccc(N3Cc4c(cc(CNC5(C)CCC5)cc4C(F)(F)F)C3=O)c2)COC1 [Compound 301, 2-(3-(3-((4-methyl-4H-1,2,4-triazol-3-yl)methyl)oxetan-3-yl)phenyl)-6-(((1-methylcyclobutyl)amino)methyl)-4-(trifluoromethyl)isoindolin-1-one] | 12 | 10 | (0.86x) |
| CC(C)[C@H]1CN(C)CCN1Cc1cc2c(c(C(F)(F)F)c1)CN(c1cc(C3(Cc4nncn4C)COC3)cc(OC3CCCC3)n1)C2=O [Compound 293, (S)-2-(6-(cyclopentyloxy)-4-(3-((4-methyl-4H-1,2,4-triazol-3-yl)methyl)oxetan-3-yl)pyridin-2-yl)-6-((2-isopropyl-4-methylpiperazin-1-yl)methyl)-4-(trifluoromethyl)isoindolin-1-one] | 5.5 | 7.8 | (1.4x) |
| CC(C)[C@H]1CN(C)CCN1Cc1cc2c(c(C(F)(F)F)c1)CN(c1cccc(C3(Cc4nncn4C)CCC3)c1)C2=O [Compound 410, (S)-6-((2-isopropyl-4-methylpiperazin-1-yl)methyl)-2-(3-(1-((4-methyl-4H-1,2,4-triazol-3-yl)methyl)cyclobutyl)phenyl)-4-(trifluoromethyl)isoindolin-1-one] | 12 | 77 | (0.62x) |
| Cn1cnnc1[C@H](F)C1(c2cccc(N3Cc4c(cc(CN5CC6(C5)CC6(F)F)cc4C(F)(F)F)C3=O)c2)COC1 [Compound 153, (R)-6-((1,1-difluoro-5-azaspiro[2.3]hexan-5-yl)methyl)-2-(3-(3-(fluoro(4-methyl-4H-1,2,4-triazol-3-yl)methyl)oxetan-3-yl)phenyl)-4-(trifluoromethyl)isoindolin-1-one] | 27 | 60 | 2.2x |
| CCNc1cc(N2Cc3c(cc(CNC4(C)CCC4)cc3C(F)(F)F)C2=O)cc(C2(Cc3nncn3C)CC(F)(F)C2)c1 [Compound 466, 2-(3-(3,3-difluoro-1-((4-methyl-4H-1,2,4-triazol-3-yl)methyl)cyclobutyl)-5-(ethylamino)phenyl)-6-(((1-methylcyclobutyl)amino)methyl)-4-(trifluoromethyl)isoindolin-1-one] | 6.4 | 6.1 | (0.96x) |
| Cn1cnnc1CC1(c2cc(NCCc3c[nH]c4ccccc34)nc(N3Cc4c(cc(CNC5(C)CCC5)cc4C(F)(F)F)C3=O)c2)CCC1 [Compound 316, 2-(6-((2-(1H-indol-3-yl)ethyl)amino)-4-(1-((4-methyl-4H-1,2,4-triazol-3-yl)methyl)cyclobutyl)pyridin-2-yl)-6-(((1-methylcyclobutyl)amino)methyl)-4-(trifluoromethyl)isoindolin-1-one] | 16 | 20 | (1.2x) |
| Cn1cnnc1[C@H](F)C1(c2cccc(N3Cc4c(cc(CN5CC(C)(C)C5)cc4C(F)(F)F)C3=O)c2)COC1 [Compound 72, (R)-6-((3,3-dimethylazetidin-1-yl)methyl)-2-(3-(3-(fluoro(4-methyl-4H-1,2,4-triazol-3-yl)methyl)oxetan-3-yl)phenyl)-4-(trifluoromethyl)isoindolin-1-one] | 55 | 110 | 2.1x |
| CNCc1cc2c(c(C(F)(F)F)c1)CN(c1cc(C3(Cc4nncn4C)COC3)cc(NC3CCCC3)n1)C2=O [Compound 277, 2-(6-(cyclopentylamino)-4-(3-((4-methyl-4H-1,2,4-triazol-3-yl)methyl)oxetan-3-yl)pyridin-2-yl)-6-((methylamino)methyl)-4-(trifluoromethyl)isoindolin-1-one] | 230 | 870 | (3.8x) |
| CC(C)[C@H]1CN(C)CCN1Cc1cc2c(c(C(F)(F)F)c1)CN(c1cc(C3(Cc4nncn4C)CCC3)cc(C#N)n1)C2=O [Compound 299, (S)-6-(6-((2-isopropyl-4-methylpiperazin-1-yl)methyl)-1-oxo-4-(trifluoromethyl)isoindolin-2-yl)-4-(1-((4-methyl-4H-1,2,4-triazol-3-yl)methyl)cyclobutyl)picolinonitrile] | 11 | 5.4 | (0.50x) |
| CC[C@H]1CCC[C@@H](c2cc3c(c(C(F)(F)F)c2)CN(c2cccc(C4(Cc5nncn5C)CC(F)(F)C4)c2)C3=O)N1 (single isomer, unassigned) [Compound 273] | 51 | 77 | (1.5x) |
| CCn1cnnc1[C@@H](F)C1(c2cccc(N3Cc4c(cccc4C(F)(F)F)C3=O)c2)COC1 [Compound 271, (S)-2-(3-(3-((4-ethyl-4H-1,2,4-triazol-3-yl)fluoromethyl)oxetan-3-yl)phenyl)-4-(trifluoromethyl)isoindolin-1-one] | 1600 | 1900 | (1.2x) |
| CC(C)[C@@H]1CNCCN1Cc1cc2c(c(C(F)(F)F)c1)CN(c1cccc(C3([C@H](F)c4nncn4C)COC3)c1)C2=O [Compound 95, 2-(3-(3-((S)-fluoro(4-methyl-4H-1,2,4-triazol-3-yl)methyl)oxetan-3-yl)phenyl)-6-(((R)-2-isopropylpiperazin-1-yl)methyl)-4-(trifluoromethyl)isoindolin-1-one] | 270 | 410 | 1.5x |
| Cc1cnn(CC2(c3cccc(N4Cc5c(cc(CN6CCN(C)C[C@@H]6C(C)C)cc5C(F)(F)F)C4=O)c3)COC2)n1 [Compound 256, (S)-6-((2-isopropyl-4-methylpiperazin-1-yl)methyl)-2-(3-(3-((4-methyl-2H-1,2,3-triazol-2-yl)methyl)oxetan-3-yl)phenyl)-4-(trifluoromethyl)isoindolin-1-one] | 15 | 13 | (0.83x) |
| Cn1cnnc1[C@H](F)C1(c2cccc(N3Cc4c(Br)cccc4C3=O)c2)COC1 [Compound 203, (R)-4-bromo-2-(3-(3-(fluoro(4-methyl-4H-1,2,4-triazol-3-yl)methyl)oxetan-3-yl)phenyl)isoindolin-1-one] | 200 | 400 | 2.0x |
| Cn1cnnc1CC1(c2cccc(N3Cc4c(cc(CN5CCNC[C@H]5C5CC5)cc4C(F)(F)F)C3=O)c2)CC(F)(F)C1 [Compound 436, (R)-6-((2-cyclopropylpiperazin-1-yl)methyl)-2-(3-(3,3-difluoro-1-((4-methyl-4H-1,2,4-triazol-3-yl)methyl)cyclobutyl)phenyl)-4-(trifluoromethyl)isoindolin-1-one] | 34 | 32 | (0.97x) |
